Measured values published in patent US9943506B2, “BCL6 inhibitors as anticancer agents” (Cornell University, priority 2013, dated 2018).
Where two headings read alike, the source gives them in different places.

Key:
Format in all cases: cell-based
[1] = system: Ly7 DLBCL cells; assay: Growth inhibition of DLBCL cells, Ly7
Experimental: (§1) 50,000 cells per well were treated for 48 hours with different concentrations of the compounds in 96 well plates, using DMSO as a control. Then, viability was determined with Cell Titer Blue™ (Promega) and growth inhibition was calculated as the percentage of viable cells with respect to cells treated with DMSO alone. GI50 values were determined by dose-response curves.
(§2) 293T cells were grown in Dulbecco's modified Eagles medium supplemented with 10% fetal bovine serum (FBS) (Gemini Bio-Products, Woodland, Calif.) and 1% penicillin-streptomycin. DLBCL cell lines OCI-Ly1, OCI-Ly1-B50, OCI-Ly7, OCI-Ly10 and OCI-Ly19 were grown in 80% Iscove's medium, 20% FBS and penicillin G/streptomycin. DLBCL cell lines Toledo, Farage, SU-DHL4, DOHH-2, SC-1, RCK8, TMD8, HBL-1, Ly3, Karpas 422 and SU-DHL6 were cultured in 90% RPMI medium, 10% FBS, 2 mM glutamine, 10 mM Hepes and penicillin G/streptomycin. All cell lines were cultured at 37° C. in a humidified atmosphere of 5% CO2.

[2] = system: SUDHL6 DLBCL cells; assay: Growth inhibition of DLBCL cells, SUDHL6; conditions: Homo sapiens, SU-DHL-6
Experimental: as §1, §2

[3] = system: Toledo DLBCL cells; assay: Growth inhibition of DLBCL cells, Toledo; conditions: Homo sapiens
Experimental: as §1, §2

[4] = system: Ly3 DLBCL cells; assay: Growth inhibition of DLBCL cells, Ly3; conditions: Table 2; BCL-6 dependent; 48 hours
Experimental: as §1, §2

[5] = system: Ly10 DLBCL cells; assay: Growth inhibition of DLBCL cells, Ly10; conditions: Table 2, BCL-6 dependent, 48 hours
Experimental: as §1, §2

[6] = system: Karpas 422 DLBCL cells; assay: Growth inhibition of DLBCL cells, Karpas 422; conditions: Homo sapiens, Table 2, BCL-6 independent, 48 hours, read-out: GI50 Karpas 422
Experimental: as §1, §2

[7] = system: Ly1B50 DLBCL cells; assay: Growth inhibition of DLBCL cells, Ly1B50; conditions: Table 2; BCL-6 independent; 48 hours
Experimental: as §1, §2

[8] = Table 10, BCL6 dependent, read-out: GI50 SUDHL6
[9] = Table 2, BCL-6 dependent, 48 hours, read-out: GI50 SUDH6
[10] = 48 h, Table 2, BCL-6 independent
[11] = Table 2, BCL-6 dependent, 48 hours
[12] = Table 2, BCL-6 independent, 48 hours

| SMILES | GI50 ([1]; Table 10, BCL6 dependent) [µM] | GI50 [2, 8] [µM] | GI50 ([3]; Table 10, BCL6 independent) [µM] | GI50 ([1]; Table 13, BCL6 dependent) [µM] | GI50 ([2]; Table 13, BCL6 dependent, read-out: GI50 SUDHL6) [µM] | GI50 ([3]; Table 13, BCL6 independent) [µM] | GI50 [4] [µM] | GI50 ([1]; 48 h, Table 2, BCL-6 dependent) [µM] | GI50 [5] [µM] | GI50 [2, 9] [µM] | GI50 [6] [µM] | GI50 [3, 10] [µM] | GI50 [7] [µM] | GI50 [1, 11] [µM] | GI50 [3, 12] [µM] |
| --- | --- | --- | --- | --- | --- | --- | --- | --- | --- | --- | --- | --- | --- | --- | --- |
| Cc1ccc(COC(=O)Cn2c(=O)oc3cc(Cl)ccc32)cc1 [Compound 333] | > 125 | > 125 | > 125 |  |  |  |  |  |  |  |  |  |  |  |  |
| Cc1cccc(COC(=O)Cn2c(=O)oc3cc(Cl)ccc32)c1 [Compound 334] | > 125 | > 125 | > 125 |  |  |  |  |  |  |  |  |  |  |  |  |
| O=C(Cn1c(=O)oc2cc(Cl)ccc21)OCc1ccc(C(F)(F)F)cc1 [Compound 339] | > 125 | > 125 | > 125 |  |  |  |  |  |  |  |  |  |  |  |  |
| C[C@@H](OC(=O)Cn1c(=O)oc2cc(Cl)ccc21)c1ccccc1 [Compound 341] | > 125 | > 125 | > 125 |  |  |  |  |  |  |  |  |  |  |  |  |
| COc1ccc2[nH]c(SCc3ccccc3)nc2c1 [Compound 1059] |  |  |  | > 125 | > 125 | > 125 |  |  |  |  |  |  |  |  |  |
| O=C(O)CCN1C(=O)/C(=C2/C(=O)Nc3c(Cl)cc(Cl)cc32)SC1=S [Compound 1093, (Z)-3-(5-(5,7-Dichloro-2-oxoindolin-3-ylidene)-4-oxo-2-thioxothiazolidin-3-yl)propanoic acid] |  |  |  |  |  |  | > 40 | 30 ± 9 | 21 ± 12 | > 40 | > 40 | > 40 | > 40 |  |  |
| Cc1cc(Cl)cc2c1NC(=O)/C2=C1\SC(=S)N(CCC(=O)O)C1=O [Compound 1095, (Z)-3-(5-(5-Chloro-7-methyl-2-oxoindolin-3-ylidene)-4-oxo-2-thioxothiazolidin-3-yl)propanoic acid] |  |  |  |  |  |  | > 40 | > 40 | > 40 | > 40 | > 40 | > 40 | > 40 |  |  |
| Cc1ccc2c(c1)/C(=C1/SC(=S)N(CCC(=O)O)C1=O)C(=O)N2 [Compound 1097, (Z)-3-(5-(5-Methyl-2-oxoindolin-3-ylidene)-4-oxo-2-thioxothiazolidin-3-yl)propanoic acid] |  |  |  |  |  |  | > 40 | > 40 | 18 ± 8 | > 40 | > 40 | > 40 | > 40 |  |  |
| COc1cc(Br)cc2c1NC(=O)/C2=C1\SC(=S)N(CCC(=O)O)C1=O [Compound 1113, (Z)-3-(5-(5-Bromo-7-methoxy-2-oxoindolin-3-ylidene)-4-oxo-2-thioxothiazolidin-3-yl)propanoic acid] |  |  |  |  |  |  | > 40 | 12 ± 7 | > 40 | > 40 | > 40 | > 40 | > 40 |  |  |
| O=C(O)CCN1C(=O)/C(=C2/C(=O)Nc3ccc(F)cc32)SC1=S [Compound 1115, (Z)-3-(5-(5-Fluoro-2-oxoindolin-3-ylidene)-4-oxo-2-thioxothiazolidin-3-yl)propanoic acid] |  |  |  |  |  |  | 22 ± 9 | 24 ± 6 | 34 ± 3 | 26 ± 7 | > 40 | > 40 | > 40 |  |  |
| O=C(O)CCN1C(=O)/C(=C2/C(=O)Nc3c(F)cccc32)SC1=S [Compound 1117, (Z)-3-(5-(7-Fluoro-2-oxoindolin-3-ylidene)-4-oxo-2-thioxothiazolidin-3-yl)propanoic acid] |  |  |  |  |  |  | 21 ± 4 | 36 ± 1 | > 40 | 25 ± 4 | > 40 | > 40 | > 40 |  |  |
| O=C(O)CCN1C(=O)/C(=C2/C(=O)Nc3ccc(Br)cc32)SC1=S [Compound 1165, (Z)-3-(5-(5-Bromo-2-oxoindolin-3-ylidene)-4-oxo-2-thioxothiazolidin-3-yl)propanoic acid] |  |  |  |  |  |  | 17 ± 6 | > 40 | 25 ± 9 | > 40 | > 40 | > 40 | > 40 |  |  |
| O=C(O)CCN1C(=O)/C(=C2/C(=O)Nc3c(Cl)cccc32)SC1=S [Compound 1167, (Z)-3-(5-(7-Chloro-2-oxoindolin-3-ylidene)-4-oxo-2-thioxothiazolidin-3-yl)propanoic acid] |  |  |  |  |  |  | > 40 | 22 ± 1 | 24 ± 2 | 29 ± 1 | > 40 | > 40 | > 40 |  |  |
| O=C(O)CCN1C(=O)/C(=C2/C(=O)Nc3ccc([N+](=O)[O-])cc32)SC1=S [Compound 1169, (Z)-3-(5-(5-Nitro-2-oxoindolin-3-ylidene)-4-oxo-2-thioxothiazolidin-3-yl)propanoic acid] |  |  |  |  |  |  | 29 ± 5 | 28 ± 7 | 20 ± 10 | 30 ± 3 | 27 ± 8 | > 40 | > 40 |  |  |
| O=C(O)CCN1C(=O)/C(=C2/C(=O)Nc3ccccc32)SC1=S [Compound 2001, (Z)-3-(4-Oxo-5-(2-oxoindolin-3-ylidene)-2-thioxothiazolidin-3-yl)propanoic acid] |  |  |  |  |  |  | > 40 | > 40 | > 40 | > 40 | > 40 | > 40 | > 40 |  |  |
| CCOC(=O)CCN1C(=O)/C(=C2/C(=O)Nc3ccc(Cl)cc32)SC1=S [Compound 2003, (Z)-Ethyl 3-(5-(5-chloro-2-oxoindolin-3-ylidene)-4-oxo-2-thioxothiazolidin-3-yl)propanoate] |  |  |  |  |  |  | > 6 | > 6 | > 6 | > 6 | > 6 | > 6 | > 6 |  |  |
| O=C(O)CCN1C(=O)/C(=C2/C(=O)Nc3ccc(I)cc32)SC1=S [Compound 2005, (Z)-3-(5-(5-Iodo-2-oxoindolin-3-ylidene)-4-oxo-2-thioxothiazolidin-3-yl)propanoic acid] |  |  |  |  |  |  | > 40 | > 40 | 21 ± 2 | 25 ± 6 | > 40 | > 40 | > 40 |  |  |
| O=C(O)CCN1C(=O)C(C2(O)C(=O)Nc3ccc(F)cc32)SC1=S (centres unmarked) [Compound 2021] |  |  |  |  |  |  | > 40 |  | > 40 | > 40 | > 40 |  | > 40 | > 40 | > 40 |
| O=C(O)CCN1C(=O)SC(C2(O)C(=O)Nc3ccc(Cl)cc32)C1=O (centres unmarked) [Compound 2023] |  |  |  |  |  |  | > 40 |  | > 40 | 21 ± 3 | > 40 |  | > 40 | 21 ± 10 | > 40 |
| O=C(O)CCN1C(=O)C(C2(O)C(=O)Nc3ccc(Br)cc32)SC1=S (centres unmarked) [Compound 2025] |  |  |  |  |  |  | > 40 |  | 15 ± 8 | 14 ± 2 | 22 ± 7 |  | > 40 | 13 ± 1 | > 40 |
| O=C(O)CCN1C(=O)SC(C2(O)C(=O)Nc3ccc(I)cc32)C1=O (centres unmarked) [Compound 2027] |  |  |  |  |  |  | 14 ± 3 |  | 6 ± 2 | 7 ± 1 | > 40 |  | > 40 | 8 ± 1 | > 40 |
| O=C(O)CN1C(=O)/C(=C2/C(=O)Nc3ccc(Cl)cc32)SC1=S [Compound 2031, (Z)-2-(5-(5-Chloro-2-oxoindolin-3-ylidene)-4-oxo-2-thioxothiazolidin-3-yl)acetic acid] |  |  |  |  |  |  | > 40 | > 40 | > 40 | > 40 | > 40 | > 40 | > 40 |  |  |
| O=C(O)CN1C(=O)/C(=C2/C(=O)Nc3ccc(F)cc32)SC1=S [Compound 2033, (Z)-2-(5-(5-Fluoro-2-oxoindolin-3-ylidene)-4-oxo-2-thioxothiazolidin-3-yl)acetic acid] |  |  |  |  |  |  | > 40 | > 40 | > 40 | > 40 | > 40 | > 40 | > 40 |  |  |
| O=C(O)CN1C(=O)/C(=C2/C(=O)Nc3c(F)cccc32)SC1=S [Compound 2035, (Z)-2-(5-(7-Fluoro-2-oxoindolin-3-ylidene)-4-oxo-2-thioxothiazolidin-3-yl)acetic acid] |  |  |  |  |  |  | > 40 | > 40 | > 40 | > 40 | > 40 | > 40 | > 40 |  |  |
| O=C(O)CN1C(=O)/C(=C2/C(=O)Nc3c(Cl)cccc32)SC1=S [Compound 2037, (Z)-2-(5-(7-Chloro-2-oxoindolin-3-ylidene)-4-oxo-2-thioxothiazolidin-3-yl)acetic acid] |  |  |  |  |  |  | > 40 | > 40 | > 40 | > 40 | > 40 | > 40 | > 40 |  |  |
